Measured values published in DBAASP.
In brackets after ≈: the same amount, converted by molar mass. Values belong to the molecule of their own block, whether it stands above or below them.

Legend:
Test in all cases: ≥ marks a high value that may be exact or a test limit, other limits are often not marked, values filed in µg/mL are converted to µM
[1] = tested on: Staphylococcus epidermidis ATCC 14490
[2] = tested on: Staphylococcus aureus ATCC 25923
[3] = tested on: Candida tropicalis PCM 2681
[4] = tested on: Klebsiella pneumoniae ATCC 200603
[5] = tested on: Candida albicans ATCC 10231
[6] = tested on: Pseudomonas aeruginosa ATCC 9027
[7] = tested on: Escherichia coli ATCC 25922
[8] = tested on: Bacillus subtilis ATCC 6633
Candida albicans LM106 = tested on: Candida albicans LM106
Aspergillus flavus LM26 = tested on: Aspergillus flavus LM26
Candida albicans LM108 = tested on: Candida albicans LM108
[9] = tested on: Trichophyton rubrum LM640
Aspergillus flavus LM247 = tested on: Aspergillus flavus LM247
[10] = tested on: Candida tropicalis ATCC 13803
[11] = tested on: Pseudomonas aeruginosa ATCC 47085
[12] = tested on: Fusarium graminearum PH-1
Pseudomonas aeruginosa 1 = tested on: Pseudomonas aeruginosa 1
Salmonella typhimurium = tested on: Salmonella typhimurium
[13] = tested on: Candida parapsilosis ATCC 22019
[14] = tested on: Enterococcus faecium ATCC 19434
Streptococcus pneumoniae = tested on: Streptococcus pneumoniae
Escherichia coli = tested on: Escherichia coli
Candida albicans = tested on: Candida albicans
Bacillus subtilis SMY = tested on: Bacillus subtilis SMY
Saccharomyces cerevisiae = tested on: Saccharomyces cerevisiae
[15] = tested on: Trichophyton rubrum KCTC 6345
[16] = tested on: Escherichia coli O157:H7 ATCC 43895
Streptococcus mutans = tested on: Streptococcus mutans
Pseudomonas putida = tested on: Pseudomonas putida
[17] = tested on: Pseudomonas aeruginosa ATCC 27853
Bacillus subtilis = tested on: Bacillus subtilis
Serratia marcescens = tested on: Serratia marcescens
Staphylococcus aureus 1 = tested on: Staphylococcus aureus 1
[18] = tested on: Escherichia coli ATCC 23716
[19] = tested on: Trichosporon beigelii KCTC 7707
Cryptococcus neoformans = tested on: Cryptococcus neoformans
[20] = tested on: Candida albicans ATCC 90028
Pseudomonas aeruginosa = tested on: Pseudomonas aeruginosa
[21] = tested on: Salmonella typhimurium ATCC 19430
[22] = tested on: Staphylococcus epidermidis NRRL B-4268
[23] = tested on: Pseudomonas aeruginosa ATCC BAA-427
[24] = tested on: Escherichia coli ATCC 10536
[25] = tested on: Trichophyton mentagrophytes
Sporothrix schenckii = tested on: Sporothrix schenckii
[26] = tested on: Staphylococcus aureus ATCC 9144
[27] = tested on: Klebsiella pneumoniae ATCC 27736
Aspergillus fumigatus = tested on: Aspergillus fumigatus
Staphylococcus aureus MR = tested on: Staphylococcus aureus MR

Structure (SMILES): NC(=O)CC[C@H](NC(=O)[C@H](CCC(N)=O)NC(=O)[C@H](CCC(=O)O)NC(=O)[C@H](Cc1ccccc1)NC(=O)[C@H](CCC(=O)O)NC(=O)[C@H](Cc1c[nH]c2ccccc12)NC(=O)[C@H](CCC(=O)O)NC(=O)[C@H](Cc1ccccc1)NC(=O)[C@H](CCCN=C(N)N)NC(=O)[C@H](CCC(N)=O)NC(=O)[C@@H](N)CCC(N)=O)C(N)=O [QQRFEWEFEQQ]
MIC [1]: ≥ 329 µM | MIC [2]: > 329 µM | MIC [3]: ≥ 329 µM | MIC [4]: ≥ 329 µM | MIC [5]: > 329 µM | MIC [6]: > 329 µM | MIC [7]: > 329 µM | MIC [8]: ≥ 329 µM

Structure (SMILES): CC[C@H](C)[C@H](NC(=O)CNC(=O)[C@@H](NC(=O)[C@H](Cc1ccccc1)NC(=O)[C@H](CC(=O)O)NC(=O)[C@H](CCSC)NC(=O)[C@H](CC(=O)O)NC(=O)[C@H](C)N)[C@@H](C)O)C(=O)N[C@@H](C)C(=O)N[C@@H](CCC(=O)O)C(=O)N[C@@H](CO)C(=O)N[C@H](C(=O)N[C@H](C(=O)N[C@@H](CCCCN)C(=O)N[C@@H](CCCCN)C(=O)N[C@H](C(=O)N[C@@H](CCCCN)C(=O)N[C@@H](CCC(=O)O)C(=O)N[C@H](C(=O)N[C@@H](CC(N)=O)C(=O)N[C@@H](C)C(=O)N[C@@H](CCCCN)C(=O)N1CCC[C@H]1C(=O)N1CCC[C@H]1C(=O)N[C@@H](C)C(=O)O)[C@@H](C)O)[C@@H](C)CC)[C@@H](C)CC)[C@@H](C)CC [ADMDFTGIAESIIKKIKETNAKPPA]
MIC (Candida albicans LM106): ≥ 47.6 µM | MIC (Aspergillus flavus LM26): ≥ 47.6 µM | MIC (Candida albicans LM108): ≥ 381 µM | MIC [9]: ≥ 381 µM | MIC (Aspergillus flavus LM247): ≥ 47.6 µM | MIC [10]: ≥ 47.6 µM

Structure (SMILES): CC(C)C[C@H](NC(=O)CN)C(=O)N[C@@H](CC(C)C)C(=O)N[C@@H](CCCN=C(N)N)C(=O)N[C@@H](CCCCN)C(=O)N[C@@H](Cc1c[nH]c2ccccc12)C(=O)NCC(=O)N[C@@H](CCCCN)C(=O)N[C@@H](CCCCN)C(=O)N[C@@H](Cc1c[nH]c2ccccc12)C(=O)N[C@@H](CCCCN)C(=O)N[C@@H](CCC(=O)O)C(=O)N[C@@H](Cc1ccccc1)C(=O)N[C@@H](CC(C)C)C(=O)N[C@@H](CCCN=C(N)N)C(=O)N[C@@H](CCCN=C(N)N)C(=O)N[C@H](C(=O)N[C@@H](Cc1c[nH]c2ccccc12)C(=O)N[C@@H](CCCCN)C(N)=O)C(C)C [GLLRKWGKKWKEFLRRVWK]
MIC [2]: 12.7 µM (≈ 32 µg/mL) | MIC [11]: 12.7 µM (≈ 32 µg/mL)

Structure (SMILES): CC(C)C[C@H](NC(=O)CNC(=O)[C@H](C)N)C(=O)N[C@@H](CCC(N)=O)C(=O)N[C@@H](Cc1ccccc1)C(=O)N1CCC[C@H]1C(=O)N[C@H](C(=O)NCC(=O)N[C@@H](CCCN=C(N)N)C(=O)N[C@H](C(=O)N[C@@H](Cc1cnc[nH]1)C(=O)N[C@@H](CCCN=C(N)N)C(=O)N[C@@H](CC(C)C)C(=O)N[C@@H](CC(C)C)C(=O)N[C@@H](CCCN=C(N)N)C(=O)N[C@@H](CCCCN)C(=O)O)C(C)C)C(C)C [AGLQFPVGRVHRLLRK]
MIC (Pseudomonas aeruginosa 1): 6.3 µM (≈ 11.6 µg/mL) | MIC [2]: 25 µM (≈ 46.2 µg/mL) | MIC (Salmonella typhimurium): 1.08 µM (≈ 2 µg/mL) | MIC [13]: 25 µM (≈ 46.2 µg/mL) | MIC [14]: 25 µM (≈ 46.2 µg/mL) | MIC (Streptococcus pneumoniae): 2.17 µM (≈ 4 µg/mL) | MIC (Escherichia coli): 2.17 µM (≈ 4 µg/mL) | MIC (Candida albicans): 4.33 µM (≈ 8 µg/mL) | MIC (Bacillus subtilis SMY): ≥ 139 µM | MIC (Saccharomyces cerevisiae): 4.33 µM (≈ 8 µg/mL) | MIC [15]: 12.5 µM (≈ 23.1 µg/mL) | MIC [16]: 6.3 µM (≈ 11.6 µg/mL) | MIC (Streptococcus mutans): 2.17 µM (≈ 4 µg/mL) | MIC (Pseudomonas putida): 2.17 µM (≈ 4 µg/mL) | MIC [17]: 12.5 µM (≈ 23.1 µg/mL) | MIC (Bacillus subtilis): 2.17 µM (≈ 4 µg/mL) | MIC (Serratia marcescens): 1.08 µM (≈ 2 µg/mL) | MIC (Staphylococcus aureus 1): 12.5 µM (≈ 23.1 µg/mL) | MIC [18]: ≥ 139 µM | MIC [19]: 12.5 µM (≈ 23.1 µg/mL) | MIC (Cryptococcus neoformans): 4.33 µM (≈ 8 µg/mL) | MIC [20]: 12.5 µM (≈ 23.1 µg/mL) | MIC (Pseudomonas aeruginosa): 12.5 µM (≈ 23.1 µg/mL) | MIC [21]: 6.3 µM (≈ 11.6 µg/mL)

Further lines, results first:

MIC [12]: ≥ 48 µM
Structure (SMILES): C[C@@H]1NC(=O)[C@@H](NC(=O)[C@@H]2CCCN2C(=O)CN)CSSC[C@@H](C(=O)O)NC(=O)[C@H](CC(N)=O)NC(=O)[C@H](Cc2cnc[nH]2)NC(=O)[C@H](CC(=O)O)NC(=O)[C@H](CO)NC1=O [GPCASDHNC]

MIC [22]: 13.2 µM (≈ 29.1 µg/mL) | MIC [13]: 3 µM (≈ 6.61 µg/mL) | MIC [23]: 25 µM (≈ 55.1 µg/mL) | MIC [24]: 6 µM (≈ 13.2 µg/mL) | MIC (Candida albicans): 3.1 µM (≈ 6.83 µg/mL) | MIC [25]: 3 µM (≈ 6.61 µg/mL) | MIC (Sporothrix schenckii): 3 µM (≈ 6.61 µg/mL) | MIC [26]: 6.25 µM (≈ 13.8 µg/mL) | MIC [27]: 6 µM (≈ 13.2 µg/mL) | MIC (Aspergillus fumigatus): 3 µM (≈ 6.61 µg/mL) | MIC (Staphylococcus aureus MR): 25 µM (≈ 55.1 µg/mL) | MIC (Cryptococcus neoformans): 6.1 µM (≈ 13.4 µg/mL) | MIC [8]: 11.3 µM (≈ 24.9 µg/mL)
Structure (SMILES): CC(C)C[C@H](NC(=O)[C@H](CCCCN)NC(=O)[C@H](CC(C)C)NC(=O)[C@H](Cc1ccccc1)NC(=O)[C@H](CCCN=C(N)N)NC(=O)[C@H](CCCN=C(N)N)NC(=O)[C@H](Cc1ccccc1)NC(=O)[C@H](Cc1c[nH]c2ccccc12)NC(=O)[C@H](CCCCN)NC(=O)[C@H](CCCN=C(N)N)NC(=O)[C@H](Cc1ccccc1)NC(=O)[C@H](CCCN=C(N)N)NC(=O)[C@H](CCCN=C(N)N)NC(=O)[C@@H](N)Cc1ccccc1)C(=O)N[C@@H](Cc1ccccc1)C(N)=O [FRRFRKWFRRFLKLF]
